Data reported in patent US6548448B2, “Delivery systems for cyclopropenes” (Rohm and Haas Company, priority 2001, dated 2003).

Key:
Assay type in all cases: physicochemical
[1] = 1-MCP release from polyvinyl alcohol (PVA) film containing 1-MCP/α-cyclodextrin complex in humid chamber; conditions: for Concentration of 1-MCP: PVA film with 0.05 g complex, 36 liter high humidity chamber
Procedure: (§1) 1-MCP/α-cyclodextrin complex powder (0.05 grams) was heat sealed into a 2×3.5 inch piece of 1.5 mil thick M 7061 polyvinyl alcohol (PVA) film (Chris Craft Corp.) using a Sealmaster 420 (Audion Elektro) heat sealer. This film was placed into a 36 liter volume high humidity chamber. […] The 1-MCP release characteristics of the film versus time were determined by periodically analyzing the atmosphere in the chamber for 1-MCP. The analysis method was gas chromatography using a flame ionization detector.

[2] = 1-MCP release from low density polyethylene (LDPE) film containing 1-MCP/α-cyclodextrin complex in humid chamber; conditions: for Concentration of 1-MCP: LDPE film with 0.05 g complex, 36 liter high humidity chamber
Procedure: as §1, with “1-MCP/α-CD” for “1-MCP/α-cyclodextrin”, “5.5×12” for “2×3.5”, “2.0” for “1.5”, “low density polyethylene (LDPE) film.” for “M 7061 polyvinyl alcohol (PVA) film (Chris Craft Corp.) using a Sealmaster 420 (Audion Elektro) heat sealer.”

[3] = 1-MCP release from waxy, cast (Parafilm M) film containing 1-MCP/α-cyclodextrin complex in humid chamber; conditions: for Concentration of 1-MCP: waxy cast Parafilm M film with 0.5 g complex, 36 liter high humidity chamber
Procedure: Parafilm® “M” film (2.0 grams, American National Can Corp.) was dissolved/dispersed in 12 grams of hexane. 1-MCP/α-cyclodextrin complex powder (0.5 grams) was mixed into this suspension and then the whole mixture was poured into a 3.5 inch diameter glass crystallizing dish to dry. The dish was placed in a 50° C. oven for 5 hrs. to dry and the resulting cast film was removed from the dish. This film was placed into a 36 liter volume high humidity chamber being careful not to allow the film to contact any water directly. The 1-MCP release characteristics of the film versus time were determined by periodically analyzing the atmosphere in the chamber for 1-MCP. The analysis method was gas chromatography using a flame ionization detector.

[4] = 1-MCP release from high density polyethylene (HDPE) film exposed to 1-MCP gas, sealed jar; conditions: for Concentration of 1-MCP: HDPE film exposed to 2206 ppm 1-MCP for 2 hours, sealed quart jar
Procedure: (§2) High density polyethylene (HDPE) film of 2 mil thickness measuring 4.5×2.75 inches was exposed to 2206 ppm 1-MCP (vol/vol) in the atmosphere of a sealed quart jar for 2 hours. The film was removed, allowed to stand in air for 5 minutes and then sealed in a fresh quart jar equipped with a sampling septum. The 1-MCP release characteristics of the film versus time were determined by periodically analyzing the atmosphere in the jar for 1-MCP. The analysis method was gas chromatography using a flame ionization detector.

[5] = 1-MCP release from wax paper exposed to 1-MCP gas, sealed jar; conditions: for Concentration of 1-MCP: wax paper exposed to 2206 ppm 1-MCP for 5 hours, sealed quart jar
Procedure: as §2, with “Wax paper measuring” for “High density polyethylene (HDPE) film of 2 mil thickness measuring”, “for 5” for “for 2”

Structure (SMILES): CC1=CC1 [Compound 1-MCP, 1-methylcyclopropene]
- Concentration of 1-MCP ([1]; 0 min.): 0.0 ppm
- Concentration of 1-MCP ([1]; 5 min.): 0.9 ppm
- Concentration of 1-MCP ([1]; 25 min.): 2.2 ppm
- Concentration of 1-MCP ([1]; 45 min.): 3.2 ppm
- Concentration of 1-MCP ([1]; 90 min.): 6.0 ppm
- Concentration of 1-MCP ([1]; 20 hr.): 17.0 ppm
- 1-MCP release from the film (in words) ([1]; PVA film, high humidity chamber, no direct water contact): released from the PVA film just by the water provided by humidity
- Concentration of 1-MCP ([2]; 0 min.): 0.0 ppm
- Concentration of 1-MCP ([2]; 5 min.): 2.0 ppm
- Concentration of 1-MCP ([2]; 20 min.): 7.7 ppm
- Concentration of 1-MCP ([2]; 40 min.): 14.5 ppm
- Concentration of 1-MCP ([2]; 60 min.): 19.0 ppm
- 1-MCP release from the film (in words) ([2]; LDPE film, high humidity chamber, no direct water contact): released from the LDPE film just by the water provided by humidity
- Concentration of 1-MCP ([3]; 0 min.): 0.0 ppm
- Concentration of 1-MCP ([3]; 5 min.): 0.02 ppm
- Concentration of 1-MCP ([3]; 20 min.): 0.1 ppm
- Concentration of 1-MCP ([3]; 35 min.): 0.3 ppm
- Concentration of 1-MCP ([3]; 60 min.): 0.8 ppm
- Concentration of 1-MCP ([3]; 90 min.): 1.4 ppm
- 1-MCP release from the film (in words) ([3]; waxy cast film, high humidity chamber, no direct water contact): released from the LDPE film just by the water provided by humidity
- Concentration of 1-MCP ([4]; 0 sec.): 0.0 ppm
- Concentration of 1-MCP ([4]; 0.5 min.): 3.0 ppm
- Concentration of 1-MCP ([4]; 5 min.): 8.0 ppm
- Concentration of 1-MCP ([4]; 15 min.): 9.6 ppm
- Concentration of 1-MCP ([4]; 60 min.): 11.0 ppm
- 1-MCP release from the film (in words) ([4]; HDPE film, sealed jar): significant release
- Concentration of 1-MCP ([5]; 0 min.): 0.0 ppm
- Concentration of 1-MCP ([5]; 0.5 min.): 0.3 ppm
- Concentration of 1-MCP ([5]; 5 min.): 0.9 ppm
- Concentration of 1-MCP ([5]; 15 min.): 0.9 ppm
- Concentration of 1-MCP ([5]; 60 min.): 0.9 ppm
- 1-MCP release from the film (in words) ([5]; wax paper, sealed jar): less release than Example 4, but still a significant amount
